Drawing on ChEMBL document CHEMBL4373715, “Discovery and Biological Evaluations of Halogenated 2,4-Diphenyl Indeno[1,2-b]pyridinol Derivatives as Potent Topoisomerase IIα-Targeted Chemotherapeutic Agents for Breast Cancer” (J Med Chem, 2019), this text covers IC50 and inhibition for 24 molecules.

The IC50 is the concentration at which inhibition is half-maximal. Read a low IC50 as greater potency in that assay. In general, inhibition refers to the share of the control response that was lost under treatment.

One assay relates to T47D. The assay is described as follows: Antiproliferative activity against human T47D cells measured after 72 hrs by EZ-Cytox assay. It is filed as functional, cell-based.
The subject of another assay is HCT-15. In words: Antiproliferative activity against human HCT15 cells measured after 72 hrs by EZ-Cytox assay. In kind it is functional, cell-based. As to conditions: HCT-15, 72 h.
Assay [1] concerns the target DNA topoisomerase 2-alpha (Homo sapiens) (UniProt P11388). The assay is described as follows: Inhibition of recombinant human topoisomerase 2alpha-mediated relaxation of supercoiled pBR322 DNA at 100 uM measured after 30 mins by ethidium bromide staining based agarose gel electrophoresis relative to control.
In assay [2] the target is T1, DNA topoisomerase 1 (Homo sapiens) (UniProt P11387).
T1 sequence (whole entry): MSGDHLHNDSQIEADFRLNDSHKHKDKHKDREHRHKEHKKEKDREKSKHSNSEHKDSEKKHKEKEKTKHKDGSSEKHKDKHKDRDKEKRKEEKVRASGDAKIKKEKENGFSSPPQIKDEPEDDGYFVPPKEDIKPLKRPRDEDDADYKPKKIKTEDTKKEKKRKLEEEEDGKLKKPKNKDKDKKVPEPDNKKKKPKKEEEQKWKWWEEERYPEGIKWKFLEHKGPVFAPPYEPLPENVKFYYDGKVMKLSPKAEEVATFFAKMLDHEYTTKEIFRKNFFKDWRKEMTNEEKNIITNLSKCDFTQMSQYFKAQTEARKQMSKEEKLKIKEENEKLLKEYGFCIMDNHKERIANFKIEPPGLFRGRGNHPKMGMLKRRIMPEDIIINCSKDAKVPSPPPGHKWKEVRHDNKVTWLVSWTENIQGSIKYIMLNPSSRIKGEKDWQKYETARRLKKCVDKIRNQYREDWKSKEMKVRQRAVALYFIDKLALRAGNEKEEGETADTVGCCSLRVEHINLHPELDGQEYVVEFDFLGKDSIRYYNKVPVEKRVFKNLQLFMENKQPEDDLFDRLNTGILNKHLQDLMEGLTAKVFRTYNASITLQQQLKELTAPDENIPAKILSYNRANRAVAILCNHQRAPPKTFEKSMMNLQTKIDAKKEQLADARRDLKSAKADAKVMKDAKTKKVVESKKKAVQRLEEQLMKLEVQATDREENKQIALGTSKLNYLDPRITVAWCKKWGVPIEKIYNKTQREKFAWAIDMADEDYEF
The assay is described as follows: Inhibition of recombinant human topoisomerase 1-mediated relaxation of supercoiled pBR322 DNA at 100 uM measured after 30 mins by ethidium bromide staining based agarose gel electrophoresis relative to control.

Assay [3] concerns the target DNA topoisomerase 2-alpha (Homo sapiens) (UniProt P11388). In words: Inhibition of recombinant human topoisomerase 2alpha-mediated relaxation of supercoiled pBR322 DNA at 20 uM measured after 30 mins by ethidium bromide staining based agarose gel electrophoresis relative to control.
Another assay has as its system HeLa. In words: Antiproliferative activity against human HeLa cells measured after 72 hrs by EZ-Cytox assay. In kind it is functional, cell-based.
For another assay, the system named is DU-145. In words: Antiproliferative activity against human DU145 cells measured after 72 hrs by EZ-Cytox assay. As to conditions: DU-145, 72 h. It is filed as functional, cell-based.

Chain of DNA topoisomerase 2-alpha (Homo sapiens) (P11388 whole entry): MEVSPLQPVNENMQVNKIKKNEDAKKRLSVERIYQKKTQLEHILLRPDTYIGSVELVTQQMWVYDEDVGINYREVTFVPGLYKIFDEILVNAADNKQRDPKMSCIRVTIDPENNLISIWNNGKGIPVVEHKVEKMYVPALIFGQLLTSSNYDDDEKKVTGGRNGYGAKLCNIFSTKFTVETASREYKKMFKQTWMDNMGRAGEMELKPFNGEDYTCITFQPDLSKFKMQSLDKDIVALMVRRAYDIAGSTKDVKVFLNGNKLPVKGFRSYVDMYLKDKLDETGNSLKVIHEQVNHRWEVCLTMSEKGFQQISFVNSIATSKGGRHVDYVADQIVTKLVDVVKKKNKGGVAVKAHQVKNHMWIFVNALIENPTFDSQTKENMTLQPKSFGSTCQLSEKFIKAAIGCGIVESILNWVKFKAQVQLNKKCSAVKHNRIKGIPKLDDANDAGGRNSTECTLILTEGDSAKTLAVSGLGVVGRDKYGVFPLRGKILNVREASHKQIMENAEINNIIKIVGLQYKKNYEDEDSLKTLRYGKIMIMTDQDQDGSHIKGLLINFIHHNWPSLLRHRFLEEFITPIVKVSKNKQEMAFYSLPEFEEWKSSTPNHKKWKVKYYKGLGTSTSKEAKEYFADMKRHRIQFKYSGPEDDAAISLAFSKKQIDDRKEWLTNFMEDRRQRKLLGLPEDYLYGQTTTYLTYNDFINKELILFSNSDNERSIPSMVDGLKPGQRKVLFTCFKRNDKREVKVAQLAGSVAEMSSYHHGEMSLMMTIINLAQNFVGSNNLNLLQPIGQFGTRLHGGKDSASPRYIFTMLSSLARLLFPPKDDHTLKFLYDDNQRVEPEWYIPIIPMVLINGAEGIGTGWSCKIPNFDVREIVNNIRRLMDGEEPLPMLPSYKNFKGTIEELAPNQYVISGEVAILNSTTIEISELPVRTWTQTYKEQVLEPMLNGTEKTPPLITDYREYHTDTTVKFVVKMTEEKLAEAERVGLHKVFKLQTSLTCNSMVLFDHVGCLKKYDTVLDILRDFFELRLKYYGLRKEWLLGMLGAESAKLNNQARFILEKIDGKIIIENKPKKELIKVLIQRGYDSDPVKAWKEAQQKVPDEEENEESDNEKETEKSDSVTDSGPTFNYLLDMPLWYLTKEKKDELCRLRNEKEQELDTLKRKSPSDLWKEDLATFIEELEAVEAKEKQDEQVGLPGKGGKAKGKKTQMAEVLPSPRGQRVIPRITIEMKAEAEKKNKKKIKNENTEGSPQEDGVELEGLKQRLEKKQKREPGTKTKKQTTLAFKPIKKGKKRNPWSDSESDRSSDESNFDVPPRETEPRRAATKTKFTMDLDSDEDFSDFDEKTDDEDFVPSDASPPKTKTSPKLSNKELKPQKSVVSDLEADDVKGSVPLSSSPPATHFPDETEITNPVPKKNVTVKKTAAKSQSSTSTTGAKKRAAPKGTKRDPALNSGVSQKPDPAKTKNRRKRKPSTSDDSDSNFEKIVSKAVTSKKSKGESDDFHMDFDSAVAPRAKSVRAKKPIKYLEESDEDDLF

Take `Oc1ccccc1-c1cc(-c2ccc(C(F)(F)F)cc2)nc2c1Cc1cccc(O)c1-2`: the IC50 in the assay on T47D turned out to be 4200 nM; with HCT-15, 3490 nM; with HeLa it was 5240 nM; in the assay on DU-145, 4500 nM. Besides, the inhibition was 92.2% in assay [1], 13.6% in assay [2] and 0.9% in assay [3].
Take `Oc1ccccc1-c1cc(-c2ccccc2Cl)nc2c1Cc1cccc(O)c1-2`: the IC50 turned out to be 870 nM with T47D, 3170 nM in the assay on HCT-15, 1120 nM in the assay on HeLa and 290 nM in the assay on DU-145. The inhibition worked out at 80.9% in assay [1], 13.4% in assay [2] and 3.7% in assay [3].
As to `Oc1ccc2c(c1)-c1nc(-c3ccccc3O)cc(-c3ccc(Cl)cc3)c1C2`, the IC50 with T47D, in the assay with HCT-15, with HeLa and with DU-145 was over 50000 nM in each case. Further, the figures for the inhibition in assay [1], in assay [2] and in assay [3] were 21.4%, 2.9% and 0%, respectively.
Take `Oc1ccc(-c2cc(-c3ccccc3C(F)(F)F)nc3c2Cc2ccc(O)cc2-3)cc1`: the IC50 in the assay with T47D came to 1470 nM; with HCT-15, 1320 nM; in the assay with HeLa, 1520 nM; in the assay on DU-145, 2780 nM. For the same molecule, the inhibition in assay [1] amounted to 81%; in assay [2], 6.7%; in assay [3], 1.2%.
As for `Oc1ccc2c(c1)-c1nc(-c3ccccc3Cl)cc(-c3ccccc3O)c1C2`, the IC50 in the assay with T47D turned out to be 2840 nM; in the assay on HCT-15, 4940 nM; with HeLa it was 6710 nM; with DU-145, 770 nM. The inhibition worked out at 76.8% in assay [1], 0% in assay [2] and 5.8% in assay [3].
`Oc1cccc(-c2cc(-c3cccc(Cl)c3)nc3c2Cc2c(O)cccc2-3)c1`: the IC50 is 1520 nM in the assay on T47D, 1130 nM in the assay with HCT-15, 3310 nM with HeLa and 1490 nM with DU-145. The inhibition worked out at 100% in assay [1], 0.5% in assay [2] and 24.1% in assay [3].
With `Oc1cccc(-c2cc(-c3ccccc3)nc3c2Cc2c(O)cccc2-3)c1`, the IC50 in the assay with T47D stood at 2890 nM; in the assay with HCT-15, 2520 nM; in the assay with HeLa, 6740 nM; with DU-145, 190 nM. The inhibition came to 95.4% in assay [1], 4.6% in assay [2] and 0% in assay [3].
As to `Oc1ccc(-c2cc(-c3cccc(Cl)c3)c3c(n2)-c2cccc(O)c2C3)cc1`, the IC50 in the assay with T47D was determined as 1920 nM; in the assay on HCT-15 it was 2390 nM; with HeLa, 1660 nM; in the assay with DU-145, 1640 nM. The inhibition in assay [1] was determined as 75.3%; in assay [2] it was 6.1%; in assay [3] it was 2.2%.
Turning to `Oc1ccc(-c2cc(-c3ccccc3Cl)nc3c2Cc2cc(O)ccc2-3)cc1`, the IC50 in the assay with T47D is 1870 nM; in the assay with HCT-15, 1850 nM; with HeLa it was 700 nM; with DU-145, 430 nM. Moreover, the inhibition in assay [1] was 86.6%; in assay [2], 7.6%; in assay [3] it was 53.6%.
On to `Oc1ccccc1-c1cc(-c2ccccc2)nc2c1Cc1cccc(O)c1-2`, for which the IC50 in the assay with T47D was 2440 nM; in the assay with HCT-15, 1360 nM; in the assay on HeLa, 2950 nM; with DU-145, 170 nM. Further, the figures for the inhibition in assay [1], in assay [2] and in assay [3] were 95.8%, 0.1% and 0.1%, respectively.
On to `Oc1cccc(-c2cc(-c3cccc(C(F)(F)F)c3)nc3c2Cc2cccc(O)c2-3)c1`, for which the IC50 in the assay on T47D was 3630 nM; with HCT-15, 14200 nM; in the assay on HeLa, over 50000 nM; in the assay with DU-145 it was 2770 nM. The figures for the inhibition in assay [1], in assay [2] and in assay [3] were 71.6%, 0.2% and 0.7%, respectively.
In the case of `Oc1cccc(-c2cc(-c3ccc(Cl)cc3)nc3c2Cc2ccc(O)cc2-3)c1`, the IC50 in the assay on T47D worked out at 3500 nM; in the assay with HCT-15 it was 860 nM; with HeLa it was 1730 nM; in the assay on DU-145 it was 4430 nM. For the same molecule, the inhibition in assay [1] is 87.8%; in assay [2], 16.7%; in assay [3] it was 51.9%.
`Oc1ccc2c(c1)Cc1c(-c3ccccc3O)cc(-c3ccc(Cl)cc3)nc1-2`: the 50% inhibitory concentration (IC50) stood at 620 nM in the assay on T47D, 3970 nM with HCT-15, 3840 nM in the assay with HeLa and 650 nM in the assay with DU-145. Also, the inhibition in assay [1] is 97.5%; in assay [2], 26.8%; in assay [3] it was 4.4%.
As for `Oc1cccc(-c2cc(-c3ccccc3Cl)nc3c2Cc2ccc(O)cc2-3)c1`, the IC50 with T47D was 550 nM; in the assay with HCT-15, 3040 nM; in the assay with HeLa, over 50000 nM; in the assay with DU-145, 570 nM. In addition, the inhibition was 88.7% in assay [1], 3.9% in assay [2] and 38.3% in assay [3].
Regarding `Oc1ccccc1-c1cc(-c2ccc(F)cc2)nc2c1Cc1c(O)cccc1-2`, the IC50 stood at 610 nM in the assay on T47D, 4310 nM in the assay on HCT-15, 32000 nM in the assay with HeLa and 2360 nM in the assay on DU-145. Moreover, the inhibition worked out at 67% in assay [1], 0% in assay [2] and 0% in assay [3].
Turning to `Oc1ccccc1-c1cc(-c2cccc(Cl)c2)c2c(n1)-c1c(O)cccc1C2`, the IC50 was found to be 1970 nM with T47D, 2460 nM in the assay with HCT-15, 14300 nM with HeLa and 2820 nM with DU-145. Besides, the figures for the inhibition in assay [1], in assay [2] and in assay [3] were 74.5%, 0% and 2.4%, respectively.
Take `Oc1ccccc1-c1cc(-c2ccccc2Cl)nc2c1Cc1c(O)cccc1-2`: the IC50 turned out to be 920 nM in the assay on T47D, 770 nM in the assay on HCT-15, 680 nM in the assay with HeLa and 830 nM with DU-145. For the same molecule, the inhibition came out at 82% in assay [1], 0% in assay [2] and 0% in assay [3].
On to `Oc1ccc(-c2cc(-c3ccc(C(F)(F)F)cc3)nc3c2Cc2cccc(O)c2-3)cc1`, for which the IC50 with T47D was over 50000 nM; in the assay with HCT-15, over 50000 nM; in the assay with HeLa it was over 50000 nM; with DU-145, 13200 nM. For the same molecule, the inhibition in assay [1] came out at 82.3%; in assay [2] it was 18.5%; in assay [3], 0%.
`Oc1cccc(-c2cc(-c3cccc(Cl)c3)c3c(n2)-c2c(O)cccc2C3)c1`: the IC50 with T47D is over 50000 nM; in the assay with HCT-15, over 50000 nM; with HeLa, over 50000 nM; in the assay on DU-145 it was 17100 nM. Further, the results for the inhibition in assay [1], in assay [2] and in assay [3] were 71.9%, 8.9% and 0.3%, respectively.
Regarding `Oc1ccccc1-c1cc(-c2cccc(Cl)c2)nc2c1Cc1c(O)cccc1-2`, the IC50 in the assay on T47D was 640 nM; in the assay with HCT-15, 7470 nM; in the assay with HeLa, over 50000 nM; in the assay with DU-145 it was 560 nM. Also, the results for the inhibition in assay [1], in assay [2] and in assay [3] were 83.5%, 0% and 6.9%, respectively.
In the case of `Oc1ccc(-c2cc(-c3ccccc3)c3c(n2)-c2cc(O)ccc2C3)cc1`, the IC50 came to 3430 nM in the assay on T47D, 1430 nM in the assay on HCT-15, 2740 nM in the assay with HeLa and 570 nM in the assay with DU-145. For the same molecule, the inhibition is 54.8% in assay [1], 20.9% in assay [2] and 9.3% in assay [3].
As to `Oc1cccc(-c2cc(-c3ccc(Cl)cc3)nc3c2Cc2c(O)cccc2-3)c1`, the IC50 with T47D came to 1960 nM; with HCT-15, 1820 nM; in the assay on HeLa, 4320 nM; with DU-145, 2030 nM. Moreover, the inhibition in assay [1] was 76.8%; in assay [2], 18.6%; in assay [3], 42%.
As to `Oc1ccc(-c2cc(-c3ccccc3F)nc3c2Cc2cccc(O)c2-3)cc1`, the IC50 with T47D is 47200 nM; in the assay on HCT-15 it was over 50000 nM; in the assay with HeLa, over 50000 nM; in the assay with DU-145 it was 10300 nM. Also, the inhibition was 47.1% in assay [1], 11.7% in assay [2] and 1.4% in assay [3].
On to `Oc1cccc(-c2cc(-c3cccc(Cl)c3)c3c(n2)-c2ccc(O)cc2C3)c1`, for which the 50% inhibitory concentration (IC50) came to 22600 nM in the assay with T47D, 25300 nM in the assay with HCT-15, 7740 nM in the assay with HeLa and 6290 nM in the assay with DU-145. Moreover, the inhibition was determined as 83% in assay [1], 3.7% in assay [2] and 27% in assay [3].
